According to patent publication US10414763B2 (CANCER RESEARCH TECHNOLOGY LIMITED, priority 2014, dated 2019):

Target: T1, full-length human PKCι (Homo sapiens, UniProt P41743)
T1 construct: Recombinant, full-length human PKCι expressed in Sf21 insect cells is also commercially available; purchased EMD Millipore; host or cells: Sf21 insect cells (baculovirus)
T1 sequence (P41743 1-596): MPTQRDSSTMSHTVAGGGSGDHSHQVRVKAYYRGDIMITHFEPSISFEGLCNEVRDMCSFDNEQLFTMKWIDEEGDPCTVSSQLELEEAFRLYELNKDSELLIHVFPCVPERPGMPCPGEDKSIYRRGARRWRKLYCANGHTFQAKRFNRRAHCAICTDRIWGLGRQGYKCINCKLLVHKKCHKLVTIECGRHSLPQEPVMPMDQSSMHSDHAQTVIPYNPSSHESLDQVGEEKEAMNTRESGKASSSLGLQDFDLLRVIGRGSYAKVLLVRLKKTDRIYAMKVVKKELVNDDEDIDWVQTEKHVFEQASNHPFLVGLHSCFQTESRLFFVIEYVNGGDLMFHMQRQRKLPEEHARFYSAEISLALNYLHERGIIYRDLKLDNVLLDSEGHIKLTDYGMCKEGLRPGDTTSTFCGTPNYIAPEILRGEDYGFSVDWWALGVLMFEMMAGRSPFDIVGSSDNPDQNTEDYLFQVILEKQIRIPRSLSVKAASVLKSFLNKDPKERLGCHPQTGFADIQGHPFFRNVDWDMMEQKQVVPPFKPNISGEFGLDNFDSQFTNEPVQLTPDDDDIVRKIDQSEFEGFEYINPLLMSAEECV
Assay: PKCι IC50 IMAP fluorescence polarisation assay, full-length enzyme, 150 μM ATP
Format: biochemical
Details: read-out: IC50 in IMAP assay against full length PKCi at 150 μM ATP
Excerpt: Assays are based on the ability of PKCι to phosphorylate a commercially available peptide substrate in vitro. The peptide substrate is FAM-PKCε pseudopeptide derived peptide, and comprises the amino acid sequence 5FAM-ERMRPRKRQGSVRRRV-NH2. Recombinant, full-length human PKCι expressed in Sf21 insect cells is also commercially available. Recombinant, kinase-domain human PKCι is expressed and purified in-house.
The procedure below explains how dose response curves for inhibitors of PKCι are obtained. The screen described is for a 384 well format but the assay can be adapted to 1536 or other formats as required.
Compounds to be tested are dissolved in 100% DMSO. Compounds are diluted as required to give a final concentration of 4% DMSO (v/v) in the assay. 1 μl is plated into 384 well black low-binding flat bottomed assay plates which are used immediately. Dilutions and additions of compound to assay plates are carried out using Matrix WellMate® and Matrix PlateMate® Plus liquid handling systems.
On the day of the screen PKCι/substrate working solution, and ATP working solution, are prepared in buffer containing 20 mM tris-HCl pH7.5, 10 mM MgCl2, 0.01% Triton X100, 250 μM EGTA and 1 mM DTT. The final concentration of PKCι used varies depending on the batch of protein but is typically 15 pM. The final concentration of peptide substrate in the assay is 100 nM. ATP is used at a final concentration of 150 μM or 25 μM in the assays containing full-length or kinase-domain PKCι respectively, which corresponds to five times or equal to the KM^APP for ATP for each enzyme, respectively. The final buffer concentration in the assay is 18 mM tris-HCl pH7.5, 9 mM MgCl2, 0.009% Triton X100, 225 μM EGTA and 0.9 mM DTT. Relevant controls are included, namely no compound and no enzyme. 5 μl PKCι/substrate working solution at 30 pM and 200 nM, respectively, is added to the wells, followed by 4 μl ATP working solution at 375 μM or 62.5 μM for full-length or kinase-domain PKCι respectively, using a 16 channel Matrix pipette. The reaction is allowed to incubate for 60 minutes at room temperature, before the reaction is stopped and developed by the addition of 20 μl IMAP™ development reagent (Molecular Devices). IMAP development reagent consists of 0.25% (v/v) IMAP progressive binding reagent, 17% (v/v) IMAP progressive binding buffer A and 3% (v/v) IMAP progressive binding buffer B. The plates are then incubated for 2 hours at room temperature before being read using an appropriate plate reader, for example a Molecular Devices HT Analyst or a BMG Pherastar. Plates are read using a fluorescence polarisation protocol with excitation at 485 nm and emission at 530 nm, and dichroic mirror at 505 nm.
Percentage inhibition values are calculated from fluorescence polarisation values, using the no compound and no enzyme control values as 0% and 100% inhibition, respectively. IC50 determination is performed with ExcelFit software (IDBS) using curve fit 205. Z′ factors are determined for each plate tested and are all above 0.5.
Alternatively, compounds were tested for their ability to inhibit the kinase activity of recombinant human baculovirus-expressed PKCiota using the immobilized metal-ion affinity particle (IMAP®) fluorescence polarization detection system (Molecular Devices, Sunnyvale, Calif.). PKCiota/IMAP® substrate mixture (2×) was prepared in 1×IMAP assay buffer (Molecular Devices) containing 1 mM DTT so that the final assay concentrations were 15 pM PKCiota (EMD Millipore, Billerica, Mass.) and 100 nM 5-fluorescein-amidite (FAM)-PKC ? -pseudosubstrate (5-FAM-ERMRPRKRQGSVRRRV-NH2) (Molecular Devices). The 2× working solution was added at 5 μL/well into a 384-well black, non-binding, flat bottom assay plate (Corning, Corning, N.Y.). […]

| Compound | IC50 |
| --- | --- |
| CN(c1nc(-c2ccnc3[nH]c4ccccc4c23)nc2cncc(C3CC3)c12)[C@@H]1CCNC[C@@]1(C)O (racemic) [Example 114, (±)-(3,4-trans)-4-{[5-Cyclopropyl-2-(9H-pyrido[2,3-b]indol-4-yl)-pyrido[3,4-d]pyrimidin-4-yl]-methyl-amino}-3-methyl-piperidin-3-ol] | < 0.1 µM |
| N[C@H]1C[C@H](Nc2nc(-c3ccnc4[nH]c5ccccc5c34)nc3cncc(C4CCC4)c23)C[C@H]1F (racemic) [Example 207, (±)-(1S,3S,4S)-N*l*-[5-Cyclobutyl-2-(9H-pyrido[2,3-b]indol-4-yl)-pyrido[3,4-d]pyrimidin-4-yl]-4-fluoro-cyclopentane-1,3-diamine] | 0.1 to 1 µM |
| C[C@@H]1C[C@@H](Nc2nc(-c3ccnc(Nc4nc(F)ccc4F)c3)nc3cncc(C4CC4)c23)CCN1 (racemic) [Example 226, (±)-{5-Cyclopropyl-2-[2-(3,6-difluoro-pyridin-2-ylamino)-pyridin-4-yl]-pyrido[3,4-d]pyrimidin-4-yl}-((2,4-trans)-2-methyl-piperidin-4-yl)-amine] | 0.1 to 1 µM |
| OC1CNCCC(Nc2nc(-c3ccnc4[nH]c5ccccc5c34)nc3cncc(C4CCC4)c23)C1 (racemic) [Example 230, Cis- or trans-(±)-5-[5-Cyclobutyl-2-(9H-pyrido[2,3-b]indol-4-yl)-pyrido[3,4-d]pyrimidin-4-ylamino]-azepan-3-ol] | < 0.1 µM |
| OC1CNCCC(Nc2nc(-c3ccnc4[nH]c5ccccc5c34)nc3cncc(C4CCC4)c23)C1 (racemic) [Example 231, Trans- or cis-(±)-5-[5-Cyclobutyl-2-(9H-pyrido[2,3-b]indol-4-yl)-pyrido[3,4-d]pyrimidin-4-ylamino]-azepan-3-ol] | < 0.1 µM |
| CC1(C)CNCCC1Nc1nc(-c2ccnc(Nc3ncn(-c4ccccc4)n3)c2)nc2cncc(C3CC3)c12 (racemic) [Example 233, rac-{5-Cyclopropyl-2-[2-(1-phenyl-1H-1,2,4-triazol-3-ylamino)-pyridin-4-yl]-pyrido[3,4-d]pyrimidin-4-yl}-(3,3-dimethyl-piperidin-4-yl)-amine] | < 0.1 µM |
| CN(c1nc(-c2ccnc(Nc3ncn(-c4ccccc4)n3)c2)nc2cncc(C3CC3)c12)C1CCNCC1(C)C (racemic) [Example 234, rac-{5-Cyclopropyl-2-[2-(1-phenyl-1H-1,2,4-triazol-3-ylamino)-pyridin-4-yl]-pyrido[3,4-d]pyrimidin-4-yl}-(3,3-dimethyl-piperidin-4-yl)-methyl-amine] | < 0.1 µM |
| CC1(C)CNCCC1Nc1nc(-c2ccnc(Nc3ncn(Cc4ccccc4)n3)c2)nc2cncc(C3CC3)c12 (racemic) [Example 237, rac-{2-[2-(1-Benzyl-1H-1,2,4-triazol-3-ylamino)-pyridin-4-yl]-5-cyclopropyl-pyrido[3,4-d]pyrimidin-4-yl}-(3,3-dimethyl-piperidin-4-yl)-amine] | < 0.1 µM |
| CN(c1nc(-c2ccnc(Nc3ncn(Cc4ccccc4)n3)c2)nc2cncc(C3CC3)c12)C1CCNCC1(C)C (racemic) [Example 238, rac-{2-[2-(1-Benzyl-1H-1,2,4-triazol-3-ylamino)-pyridin-4-yl]-5-cyclopropyl-pyrido[3,4-d]pyrimidin-4-yl}-(3,3-dimethyl-piperidin-4-yl)-methyl-amine] | < 0.1 µM |
| O[C@]12CCN(c3nc(-c4ccnc(Nc5ncn(Cc6ccccc6)n5)c4)nc4cncc(C5CC5)c34)[C@H]1CCNC2 (racemic) [Example 240, rac-(3aS,7aS)-1-{2-[2-(1-Benzyl-1H-1,2,4-triazol-3-ylamino)-pyridin-4-yl]-5-cyclopropyl-pyrido[3,4-d]pyrimidin-4-yl}-octahydro-pyrrolo[3,2-c]pyridin-3a-ol] | < 0.1 µM |
| C[C@@]1(O)CNCC[C@H]1Nc1nc(-c2ccnc3[nH]c4ccccc4c23)nc2cncc(C3CCC3)c12 (racemic) [Example 246] | < 0.1 µM |

Continued, values first:

| IC50 | Compound |
| --- | --- |
| < 0.1 µM | O[C@]12CCN(c3nc(-c4ccnc5[nH]c6ccccc6c45)nc4cncc(C5CC5)c34)[C@H]1CCNC2 (racemic) [Example 113, (±)-(3aS,7aS)-1-[5-Cyclopropyl-2-(9H-pyrido[2,3-b]indol-4-yl)-pyrido[3,4-d]pyrimidin-4-yl]-octahydro-pyrrolo [3,2-c]pyridin-3a-ol] |
| < 0.1 µM | Cc1cc2c(-c3nc(N4CC[C@]5(O)CNCC[C@H]45)c4c(C5CCC5)cncc4n3)ccnc2[nH]1 (racemic) [Example 117, (±)-(3aS,7aS)-1-[5-Cyclobutyl-2-(2-methyl-1H-pyrrolo[2,3-b]pyridin-4-yl)-pyrido[3,4-d]pyrimidin-4-yl]-octahydro-pyrrolo [3,2-c]pyridin-3a-ol] |
| < 0.1 µM | O[C@]12CCN(c3nc(-c4ccnc5[nH]c(-c6ccccc6Cl)cc45)nc4cncc(C5CC5)c34)[C@H]1CCNC2 (racemic) [Example 143, (±)-(3aS,7aS)-1-{2-[2-(2-Chloro-phenyl)-1H-pyrrolo[2,3-b]pyridin-4-yl]-5-cyclopropyl-pyrido[3,4-d]pyrimidin-4-yl}-octahydro-pyrrolo [3,2-c]pyridin-3a-ol] |
| < 0.1 µM | O[C@]12CCN(c3nc(-c4ccnc(Nc5nc6ccccn6n5)c4)nc4cncc(C5CC5)c34)[C@H]1CCNC2 (racemic) [Example 151, (±)-(3aS,7aS)-1-{5-Cyclopropyl-2-[2-([1,2,4]triazolo[1,5-a]pyridin-2-ylamino)-pyridin-4-yl]-pyrido[3,4-d]pyrimidin-4-yl}-octahydro-pyrrolo [3,2-c]pyridin-3a-ol] |
| < 0.1 µM | C[C@@H]1CNCC[C@H]1Nc1nc(-c2ccnc(Nc3nc(F)ccc3F)c2)nc2cncc(C3CC3)c12 (racemic) [Example 223, (±)-{5-Cyclopropyl-2-[2-(3,6-difluoro-pyridin-2-ylamino)-pyridin-4-yl]-pyrido[3,4-d]pyrimidin-4-yl}-((3,4-trans)-3-methyl-piperidin-4-yl)-amine] |
| < 0.1 µM | C[C@@H]1CNCC[C@@H]1Nc1nc(-c2ccnc(Nc3nc(F)ccc3F)c2)nc2cncc(C3CC3)c12 (racemic) [Example 224, (±)-{5-Cyclopropyl-2-[2-(3,6-difluoro-pyridin-2-ylamino)-pyridin-4-yl]-pyrido[3,4-d]pyrimidin-4-yl}-((3,4-cis)-3-methyl-piperidin-4-yl)-amine] |
| < 0.1 µM | C[C@H]1C[C@@H](Nc2nc(-c3ccnc(Nc4nc(F)ccc4F)c3)nc3cncc(C4CC4)c23)CCN1 (racemic) [Example 225, (±)-{5-Cyclopropyl-2-[2-(3,6-difluoro-pyridin-2-ylamino)-pyridin-4-yl]-pyrido[3,4-d]pyrimidin-4-yl}-((2,4-cis)-2-methyl-piperidin-4-yl)-amine] |
